Data reported in PMC7032632 (Experimental eye research, 2019).
pEC50: −log10 of the molar value. Ends that are not written are not given here.

What was measured:
[1] = test system: choroidal neovascularization (CNV); conditions: mouse, day 0 IVT injection; ref Wang et al., 2012; cited from earlier work
[2] = test system: VEGF-activated endothelial cells (primary human dermal microvascular EC); type: cell-based; conditions: 48 h
cells presenting 67LR = conditions: ref Gopalakrishna et al., 2018; Yu et al., 2009; cited from earlier work

Substance	pEC50 [2]	also measured
Ac-GV-d-alloIle-Ser-Q-I-R-Pro-ethylamide [ABT-898]	–	laser-induced CNV, IVT injection [1]: mitigate laser-induced CNV
YIGSR	–	activity range in cells presenting 67LR (cells presenting 67LR): 2 to 20 µM

Second part, led by results:

pEC50 [2]	Substance	also measured
7.52	Ac-GYDLYRV-NH2 [PEDF 862]	–
7.22	Ac-GYDLYRVRS-NH2 [PEDF 860]	–
8.00	NFGYDLYRVRSSMSPTTN [PEDF P18]	–
